# According to US20220288002A1, “Composition comprising EPA, MA and leucine for improving muscle function” (N.V. Nutricia, priority 2019, published 2022):
# Tested on: C2C12 myotubes
# Assay: In vitro puromycin incorporation (muscle protein synthesis) in differentiated C2C12 myotubes stimulated with insulin + leucine, Western blot
# Assay type: cell-based, mouse
# Method: C2C12 mouse myoblasts are obtained from the American Type Culture Source Collection (no. CRL-1772). Myoblasts are cultured at 37° C. in an atmosphere of 5% CO2 in grown medium consisting of Dulbecco's modified Eagle's medium (DMEM) supplemented with 10% fetal calf serum and antibiotics. Myotube C2C12 differentiation is induced by withdrawing fetal calf serum from confluent cells and adding 10 μg/ml insulin, 5 μg/ml transferrin and 2% horse serum. 8-days-differentiated C2C12 myotubes are treated with medium containing EPA and/or MA for 16 hours. After a 4-hour starvation period, C2C12 myotubes were treated with insulin (100 nM)+Leucine (5 mM) for in total 60 min. A limitation of growing myotubes in vitro is that the cells are not able to produce insulin when administered leucine whereas in vivo the pancreas starts producing insulin when leucine is administered to a subject. Common to this model, to compensate for this limitation, the in vitro experiment requires the separate administration of insulin. […] By western-Blot analyses the level of protein synthesis was analyzed. This gives quantitative information on the incorporation of puromycin which is a measure for intracellular pathways regulating protein synthesis (Akt, mTOR) and/or a direct measure of protein synthesis. […]
smiles,measurement,setting,value
"CCCCCCCCCCCCCC(=O)O [MA, myristic acid]","puromycin incorporation, individual fatty acid","25 μM EPA without MA, or 25 or 50 μM MA without EPA, 16 hours, then insulin (100 nM)+Leucine (5 mM) 60 min, relative to control without stimulation and without fatty acids (indexed at 100)",have an effect on puromycin incorporation
same,"puromycin incorporation, effect of raising MA from 25 μM to 50 μM vs adding 25 μM EPA to 25 μM MA","MA without EPA, 25 μM vs 50 μM, insulin + leucine stimulation",much smaller effect
